The source of these data is patent US7482379B2, “Propenoyl hydrazides” (priority 2004, dated 2009).

Molecules are shown by their SMILES. pIC50: −log10 of the molar value. Like-named read-outs stand apart in the source and are kept apart here.

In one assay the target is S. mansoni legumain (Schistosoma mansoni, UniProt P09841, N192C). Put plainly: S. mansoni legumain (SmAE) inhibition assay. It counts as biochemical. The procedure:
Studies with the propenoyl hydrazides using the schistosome legumain […], (Schistosoma mansoni asparaginyl endopeptidase) were also performed. […] The actual active site enzyme concentration is unknown. The lyophilized enzyme ([…]) was reconstituted in 1.5 mL 0.5 M sodium acetate, pH 4.5 containing 4 mM DTT, and left to stand at 37° C. for 3-4 hours to allow for auto-activation of the zymogen. In a black 96-well microtiter plate, 50 μL of activated enzyme was added to an equal volume of 0.1 M citrate-phosphate buffer pH 6.8 containing 4 mM DTT. Inhibitor stock solutions (20 mM) were prepared in DMSO. Serial dilutions (using water) of inhibitor were added (as 1 μL aliquots) to yield concentrations of between 2 and 0.00002 μM inhibitor. […] After incubating various inhibitor concentrations with enzyme, 100 μL of the same buffer containing 20 μM substrate (Cbz-Ala-Ala-Asn-AMC) was added to the wells and the reaction monitored at room temperature with linear kinetics up to 20 minutes. Inhibitors are tested in duplicate. A plot of the RFU/min versus the inhibitor concentration [μM] permitted calculation of an IC50 value and estimation of the kobs/[I].

For a further assay, the target named is T1, Caspase-7 (Homo sapiens, UniProt P55210).
T1 sequence (P55210 24-198 limits assumed): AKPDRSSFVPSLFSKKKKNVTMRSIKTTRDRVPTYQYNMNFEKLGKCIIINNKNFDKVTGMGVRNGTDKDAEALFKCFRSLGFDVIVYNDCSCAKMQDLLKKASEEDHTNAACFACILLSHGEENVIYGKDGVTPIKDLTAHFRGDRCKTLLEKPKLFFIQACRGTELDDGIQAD
T1 sequence (P55210 207-303 limits assumed): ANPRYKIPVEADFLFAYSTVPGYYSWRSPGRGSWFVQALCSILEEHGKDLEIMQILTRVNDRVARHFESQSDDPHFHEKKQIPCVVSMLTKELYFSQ
Put plainly: Caspase-7 progress curve inhibition assay. Conditions: second-order rate constant; Ac-DEVD-AMC substrate; Pipes buffer pH 7.2.

Chain of S. mansoni legumain (P09841 32-291 N192C): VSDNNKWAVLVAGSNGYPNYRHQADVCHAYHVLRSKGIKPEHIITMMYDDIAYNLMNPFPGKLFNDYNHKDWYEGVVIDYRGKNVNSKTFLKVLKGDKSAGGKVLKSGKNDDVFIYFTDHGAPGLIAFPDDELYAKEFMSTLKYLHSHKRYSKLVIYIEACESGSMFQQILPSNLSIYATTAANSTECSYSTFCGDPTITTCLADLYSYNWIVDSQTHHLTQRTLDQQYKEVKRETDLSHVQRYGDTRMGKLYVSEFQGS

Regarding `C[C@H](NC(=O)OCc1ccccc1)C(=O)N[C@@H](C)C(=O)NN(CC(N)=O)C(=O)/C=C/C(=O)N(C)Cc1cccc2ccccc12` [N^2—(N-Benzyloxycarbonylalanylalanyl)-N^1-carbamoylmethyl-N^1-trans-(3-(methyl-1-naphthylmethylcarbamoyl)propenoyl)hydrazine], on S. mansoni legumain, the pIC50 (as a rule, −log10 of the IC50, conventionally taken in molar units) was 7.46. In addition, on S. mansoni legumain (read-out: kobs/[I]), the kinact/KI is 16900 M⁻¹ s⁻¹. `C[C@H](NC(=O)OCc1ccccc1)C(=O)N[C@@H](C)C(=O)NN(CC(N)=O)C(=O)/C=C/C(=O)NCc1ccc(F)cc1` [Cbz-Ala-Ala-AAsn-CH═CH—CONH-Bzl-4-F, N^2—(N-Benzyloxycarbonylalanylalanyl)-N^1-carbamoylmethyl-N^1-trans-(3-(4-fluorobenzyl)carbamoylpropenoyl)hydrazine] gave a pIC50 against S. mansoni legumain of 6.10.

In turn, `CCOC(=O)C=CC(=O)N(CC(N)=O)NC(=O)C(C)NC(=O)C(C)NC(=O)CCCCC1SCC2NC(=O)NC21` (stereo not drawn) [Biotinyl-Ala-Ala-AAsn-CH═CH—COOEt] gave a negative logarithm of the IC50 (pIC50) at S. mansoni legumain of 8.00.

As for `C[C@H](NC(=O)OCc1ccccc1)C(=O)N[C@@H](C)C(=O)NN(CC(N)=O)C(=O)/C=C/C(=O)N(C)CCc1ccccc1` [Cbz-Ala-Ala-AAsn-CH═CH—CON(CH3)CH2CH2Ph, N^2—(N-Benzyloxycarbonylalanylalanyl)-N^1-carbamoylmethyl-N^1-trans-(3-(Methylphenethylcarbamoyl)propenoyl)hydrazine], at S. mansoni legumain, the pIC50 was 6.22. Still for that read-out and setting: the same measure for `C[C@H](NC(=O)OCc1ccccc1)C(=O)N[C@@H](C)C(=O)NN(CC(N)=O)C(=O)/C=C/c1ccco1` [Cbz-Ala-Ala-AAsn-CH═CH-2-furyl, N^2—(N-Benzyloxycarbonylalanylalanyl)-N^1-carbamoylmethyl-N^1-trans-(3-(2-furyl)propenoyl)hydrazine]: < 5.70. For `C[C@H](NC(=O)OCc1ccccc1)C(=O)N[C@@H](C)C(=O)NN(CC(N)=O)C(=O)/C=C/C(=O)N1CCCc2ccccc21` (relative stereo) [N^2—(N-Benzyloxycarbonylalanylalanyl)-N^1-carbamoylmethyl-N^1-trans-(3-(3,4-dihydro-2H-quinolin-1-yloxo)propenoyl)hydrazine], the pIC50 on S. mansoni legumain (S. mansoni legumain, 20 min preincubation, Cbz-Ala-Ala-Asn-AMC substrate, read-out: IC50) is 6.70.

Regarding `CCCCN(CCCC)C(=O)/C=C/C(=O)N(CC(N)=O)NC(=O)[C@H](C)NC(=O)[C@H](C)NC(=O)OCc1ccccc1` [Cbz-Ala-Ala-AAsn-CH═CH—CON(nBu)2, N^2—(N-Benzyloxycarbonylalanylalanyl)-N^1-carbamoylmethyl-N^1-trans-(3-dibutylcarbamoylpropenoyl)hydrazine], at S. mansoni legumain, the pIC50 was 6.26. Turning to `CCN(CC)C(=O)/C=C/C(=O)N(CC(N)=O)NC(=O)[C@H](C)NC(=O)[C@H](C)NC(=O)OCc1ccccc1` [Cbz-Ala-Ala-AAsn-CH═CH—CONEt2, N^2—(N-Benzyloxycarbonylalanylalanyl)-N^1-carbamoylmethyl-N^1-trans-(3-diethylcarbamoylpropenoyl)hydrazine], on S. mansoni legumain (S. mansoni legumain, 20 min preincubation, Cbz-Ala-Ala-Asn-AMC substrate), the pIC50 is < 5.70. Compound `C[C@H](NC(=O)OCc1ccccc1)C(=O)N[C@@H](C)C(=O)NN(CC(N)=O)C(=O)/C=C/C(=O)Nc1ccccc1` [Cbz-Ala-Ala-AAsn-CH═CH—CONHPh, N^2—(N-Benzyloxycarbonylalanylalanyl)-N^1-carbamoylmethyl-N^1-trans-(3-phenylcarbamoylpropenoyl)hydrazine] showed a pIC50 against S. mansoni legumain of 6.15.

Regarding `C[C@H](NC(=O)OCc1ccccc1)C(=O)N[C@@H](C)C(=O)NN(CC(N)=O)C(=O)/C=C/C(=O)N(Cc1ccco1)Cc1ccco1` [Cbz-Ala-Ala-AAsn-CH═CH—CON(CH2-2-furyl)2, N^2—(N-Benzyloxycarbonylalanylalanyl)-N^1-carbamoylmethyl-N^1-trans-(3-bis-(2-furylmethyl)carbamoylpropenoyl)hydrazine], the pIC50 at S. mansoni legumain was 6.05. For the compound `C/C=C/C=C/C(=O)N(CC(=O)O)NC(=O)[C@@H](NC(=O)OCc1ccccc1)C(C)C` (stereo in doubt) [Cbz-Val-AAsp-CH═CH—CH═CH—CH3, N^2—(N-Benzyloxyearbonylvalyl)-N^1-carboxymethyl-N^1-trans-(hexa-2,4-dienoyl)hydrazine], at Caspase-7, the “k2 Caspase-7” value was found to be 56 M⁻¹ s⁻¹.
